PMC3982398 (Biochemical pharmacology, 2009)
Like-named read-outs stand apart in the source and are kept apart here.

Experiments:
CYP19 = conditions: ref [27]; cited from earlier work
human hepatic microsomes [1] = format: in vitro ADME; conditions: ketoconazole 0.5 μM, troleandomycin 50 μM, sulfaphenazole 40 μM; for decrease in formation of M2a: lansoprazole 10 μM; for decrease in the aggregate (total) amount of metabolites formed: α-naphthoflavone 0.05 μM
[2] = test system: human placental microsomes
human hepatic microsomes [3] = test system: human hepatic microsomes
[4] = compared with glyburide; ref [12], [13]; cited from earlier work
[5] = test system: human placental microsomes; conditions: sulfaphenazole 10 μM, lansoprazole 10 μM, troleandomycin 50 and 200 μM, quinidine 5 μM, 4-methylpyrazole 25 μM
[6] = cited from earlier work

O=c1cc(-c2ccccc2)oc2c1ccc1ccccc12 [α-naphthoflavone]
inhibition of CYP19 (CYP19): inhibitor of CYP19

CC(=O)N1CCN(c2ccc(OCC3COC(Cn4ccnc4)(c4ccc(Cl)cc4Cl)O3)cc2)CC1 (stereo not drawn) [ketoconazole]
decrease in formation of M1 (human hepatic microsomes [1]): ≤ 20%
decrease in formation of M2b (human hepatic microsomes [1]): ≤ 20%
decrease in formation of M3 (human hepatic microsomes [1]): ≥ 50%
decrease in formation of M4 (human hepatic microsomes [1]): ≥ 50%
decrease in formation of M5 (human hepatic microsomes [1]): 93%
decrease in formation of M2a (human hepatic microsomes [1]): approximately 40%
decrease in the aggregate (total) amount of metabolites formed (human hepatic microsomes [1]): 53%

COc1ccc(Cl)cc1C(=O)NCCc1ccc(S(=O)(=O)NC(=O)N[C@H]2CCC[C@@H](O)C2)cc1 (relative stereo) [M2b, 3-cis-hydroxycyclohexyl glyburide]
amount of metabolite formed as percent of the total metabolites [2]: 1%
amount of metabolite formed as percent of the total metabolites (human hepatic microsomes [3]): 12%
potency in lowering the concentration of glucose [4]: as potent as glyburide

C[C@]12CCC(=O)C(O)=C1CC[C@@H]1[C@@H]2CC[C@]2(C)C(=O)CC[C@@H]12 [4-hydroxyandrostenedione]
decrease in M5 formation ([5]; 4-hydroxyandrostenedione 10 μM, α-naphthoflavone 0.05 μM): 87%

C=C[C@H]1C[N@@]2CC[C@H]1C[C@@H]2[C@@H](O)c1ccnc2ccc(OC)cc12 [quinidine]
effect on the aggregate amount of metabolites [5]: negligible

Nc1ccc(S(=O)(=O)Nc2ccnn2-c2ccccc2)cc1 [sulfaphenazole]
decrease in formation of M1 (human hepatic microsomes [1]): approximately 40%
decrease in formation of M2b (human hepatic microsomes [1]): approximately 40%
decrease in formation of M3 (human hepatic microsomes [1]): ≤ 20%
decrease in formation of M4 (human hepatic microsomes [1]): ≤ 20%
decrease in formation of M5 (human hepatic microsomes [1]): ≤ 20%
decrease in formation of M2a (human hepatic microsomes [1]): approximately 40%
decrease in the aggregate (total) amount of metabolites formed (human hepatic microsomes [1]): 28%
effect on the aggregate amount of metabolites [5]: negligible

COc1ccc(Cl)cc1C(=O)NCCc1ccc(S(=O)(=O)NC(=O)NC2CCCC(O)C2)cc1 (stereo not drawn) [M3, 3-trans-hydroxycyclohexyl glyburide]
amount of metabolite formed as percent of the total metabolites [2]: 1%
amount of metabolite formed as percent of the total metabolites (human hepatic microsomes [3]): 6%

Cc1c(OCC(F)(F)F)ccnc1C[S+]([O-])c1nc2ccccc2[nH]1 (stereo not drawn) [lansoprazole]
decrease in formation of M2a (human hepatic microsomes [1]): ≈ 20%
effect on the aggregate amount of metabolites [5]: negligible

COc1ccc(Cl)cc1C(=O)NCCc1ccc(S(=O)(=O)NC(=O)N[C@H]2CC[C@H](O)CC2)cc1 [M1, 4-trans-hydroxycyclohexyl glyburide]
amount of metabolite formed as percent of the total metabolites [2]: 4%
potency in lowering the concentration of glucose [4]: as potent as glyburide

COc1ccccc1Oc1c(NS(=O)(=O)c2ccc(C(C)(C)C)cc2)nc(-c2ncccn2)nc1OCCO [bosentan]
effect of administration on plasma levels of glyburide ([6]; ref [18]): lowered plasma levels of glyburide

CO[C@H]1/C=C/O[C@@]2(C)Oc3c(C)c(O)c4c(O)c(c(/C=N/N5CCN(C)CC5)c(O)c4c3C2=O)NC(=O)/C(C)=C\C=C\[C@H](C)[C@H](O)[C@@H](C)[C@@H](O)[C@@H](C)[C@H](OC(C)=O)[C@@H]1C [rifampin]
effect of administration on plasma levels of glyburide ([6]; ref [30]): lowered plasma levels of glyburide

COc1ccc(Cl)cc1C(=O)NCCc1ccc(S(=O)(=O)NC(=O)N[C@@H]2CCCC[C@H]2O)cc1 (relative stereo) [M4, 2-trans-hydroxycyclohexyl glyburide]
amount of metabolite formed as percent of the total metabolites [2]: 1%
amount of metabolite formed as percent of the total metabolites (human hepatic microsomes [3]): 4%

COc1ccc(Cl)cc1C(=O)NCCc1ccc(S(=O)(=O)NC(=O)N[C@H]2CC[C@@H](O)CC2)cc1 [M2a, 4-cis-hydroxycyclohexyl glyburide]
amount of metabolite formed as percent of the total metabolites [2]: negligible
amount of metabolite formed as percent of the total metabolites (human hepatic microsomes [3]): 11%
